Data on 2 compounds can be found in patent US20250032450A1, “[…] INHALABLE FORMULATIONS” (Cybin UK Ltd., priority 2021, published 2025).

Structures are written as SMILES. ≈ marks a conversion by molar mass, not a printed value. Where two headings read alike, the source gives them in different places.

Series [1] can be described thus: N,N-Dimethyltryptamine pH-solubility in 0.5M Britton Robinson buffer. The format is physicochemical. The conditions noted are these: aqueous buffer, thermodynamic from solid, read-out: solubility, Real data. The procedure: Prior to adding N,N-dimethyltryptamine, a quantity of NaOH was added to the BR buffer as required to ensure the required pH. The total volume of BR buffer plus required amount of NaOH was 5 ml for each pH tested (pH 4, 5, 6, 7, 8, 9 & 10).

For series [2] the following is noted: HMDB; cited from earlier work.
The conditions of series [3]: in water; estimated; cited from earlier work.

The term solubility denotes the concentration that dissolves in the medium under given conditions. Regarding `CN(C)CCc1c[nH]c2ccccc12` [N,N-Dimethyltryptamine], the solubility in series [1] (pH 4.05, 25° C.) was 105 mg/mL (≈ 556 mM); in series [1] (pH 4.98, 25° C.), 126 mg/mL (≈ 671 mM); in series [1] (pH 6.05, 25° C.) it was 92.6 mg/mL (≈ 492 mM); in series [1] (pH 7.08, 25° C.), 68.6 mg/mL (≈ 364 mM); in series [1] (pH 8.07, 25° C.), 88.4 mg/mL (≈ 470 mM); in series [1] (pH 8.91, 25° C.), 17.1 mg/mL (≈ 90.8 mM). The solubility in series [1] (pH 10.01, 25° C.) amounted to 1.14 mg/mL (≈ 6.06 mM). In addition, in series [2], the degradation in solution result was “degrades relatively quickly in solution”.

For the compound `CN(C)CCc1c[nH]c2cccc(OP(=O)(O)O)c12` [psilocybin, [3-(2-Dimethylaminoethyl)-1H-indol-4-yl] dihydrogen phosphate], in series [3], the “pKa of terminal phosphate oxygen atom (first value)” value is on record as 1.3 and the “pKa of terminal phosphate oxygen atom (second value)” value is recorded as 6.5.
